Assay results from ChEMBL document CHEMBL1154132, “Mycophenolic derivatives from Eupenicillium parvum” (J Nat Prod, 2008).
Active and inactive are the calls of the source. The calls are words filed in the database; no cut-off is given here.

What was measured:
Assay type in all cases: functional, organism-based
Escherichia coli = test: Antimicrobial activity against Escherichia coli ATCC 35218 by standard disk assay
Aspergillus fumigatus = test: Antimicrobial activity against Aspergillus fumigatus […] by standard disk assay
Pseudomonas aeruginosa = test: Antimicrobial activity against Pseudomonas aeruginosa ATCC 27853 by standard disk assay
[1] = tested on: Mycobacterium intracellulare; test: Antimicrobial activity against Mycobacterium intracellular […] by alamar blue assay
Staphylococcus aureus = test: Antimicrobial activity against methicillin-resistant Staphylococcus aureus ATCC 43300 by standard disk assay
Candida albicans = test: Antimicrobial activity against Candida albicans ATCC 90028 by standard disk assay
Cryptococcus neoformans = test: Antimicrobial activity against Cryptococcus neoformans ATCC 90113 by standard disk assay

Cc1c(O)cc(O)c2c1COC2=O
Activity (Escherichia coli): inactive | Activity (Aspergillus fumigatus): inactive | Activity (Pseudomonas aeruginosa): inactive | Activity [1]: inactive | Activity (Staphylococcus aureus): inactive

COc1c(C)c2c(c(O)c1C/C=C(\C)CCC(=O)O)C(=O)OC2 [MYCOPHENOLIC ACID]
Activity (Escherichia coli): inactive | IC50 (Candida albicans): 8 µM | Activity (Aspergillus fumigatus): inactive | Activity (Pseudomonas aeruginosa): inactive | IC50 (Cryptococcus neoformans): 15 µM | Activity [1]: inactive | Activity (Staphylococcus aureus): inactive

COc1c(C)c2c(c(O)c1CC[C@H](C)C(=O)O)C(=O)OC2
Activity (Escherichia coli): inactive | Activity (Aspergillus fumigatus): inactive | Activity (Pseudomonas aeruginosa): inactive | Activity [1]: inactive

COC(=O)C[C@H](O)/C(C)=C/Cc1c(OC)c(C)c2c(c1OC)C(=O)OC2
Activity (Escherichia coli): inactive | Activity (Aspergillus fumigatus): inactive | Activity (Pseudomonas aeruginosa): inactive | Activity [1]: inactive | Activity (Staphylococcus aureus): inactive

COc1c(C)c2c(c(O)c1C/C=C(\C)[C@@H](O)CC(=O)O)C(=O)OC2
Activity (Escherichia coli): inactive | Activity (Aspergillus fumigatus): inactive | Activity (Pseudomonas aeruginosa): inactive | Activity [1]: inactive | Activity (Staphylococcus aureus): inactive

Cc1c(O)c(CC[C@H](C)C(=O)O)c(O)c2c1COC2=O
Activity (Escherichia coli): inactive | Activity (Aspergillus fumigatus): inactive | Activity (Pseudomonas aeruginosa): inactive | Activity [1]: inactive | Activity (Staphylococcus aureus): inactive
